From patent US11161850B2, “Fused pyrazine derivatives as A2A / A2B inhibitors” (Incyte Corporation, priority 2018, dated 2021)
Where two headings read alike, the source gives them in different places.

Assays:
[1] = molecular target: human adenosine A2B receptor (Homo sapiens (Human), UniProt P29275); experiment: Adenosine A2B Receptor Cyclic AMP GS Assay; format: cell-based; settings: HEK-293 cells expressing human A2B, agonist NECA 12 nM
Description: Example B. Adenosine A2B Receptor Cyclic AMP GS Assay
Stably transfected HEK-293 cells expressing the human adenosine A2B receptor (Perkin Elmer) were maintained in MEM culture medium with 10% FBS and 100 μg/mL Geneticin (Life Technologies). 18 to 24 hours prior to assay, geneticin was removed from culture. The cisbio cAMP-GS Dynamic kit utilizing the FRET (Fluorescence Resonance Energy Transfer) technology was used to measure cAMP accumulation in the cells. Compounds of the present disclosure at an appropriate concentration were mixed with 10000 cells/well in white 96 well half area plates (Perkin Elmer) for 30 min at room temperature gently shaking. Agonist, NECA (R&D Technologies) at 12 nM was added to each well for 60 min at room temperature gently shaking. Detection reagents, d2-labeled cAMP (acceptor) and anti-cAMP cryptate (donor) were added to each well for 60 min at rt gently shaking. Plates were read on Pherastar (BMG Labtech), fluorescence ratio 665/620 was calculated and EC50 determination was performed by fitting the curve of percent of control versus the log of the compound concentration using GraphPad Prism.

[2] = molecular target: Adenosine A2A (Homo sapiens (Human), UniProt P29274); experiment: A2A Tag-Lite HTRF assay; format: binding
Excerpt: Example C. A2A Tag-Lite® HTRF Assay

[3] = Tag-Lite Adenosine A2A labeled cells, fluorescent ligand 12.5 nM, read-out: A2A_Ki
[4] = read-out: A2A_Ki, Tag-Lite Adenosine A2A labeled cells, fluorescent ligand 12.5 nM

human adenosine A2B receptor, sequence (P29275 whole entry): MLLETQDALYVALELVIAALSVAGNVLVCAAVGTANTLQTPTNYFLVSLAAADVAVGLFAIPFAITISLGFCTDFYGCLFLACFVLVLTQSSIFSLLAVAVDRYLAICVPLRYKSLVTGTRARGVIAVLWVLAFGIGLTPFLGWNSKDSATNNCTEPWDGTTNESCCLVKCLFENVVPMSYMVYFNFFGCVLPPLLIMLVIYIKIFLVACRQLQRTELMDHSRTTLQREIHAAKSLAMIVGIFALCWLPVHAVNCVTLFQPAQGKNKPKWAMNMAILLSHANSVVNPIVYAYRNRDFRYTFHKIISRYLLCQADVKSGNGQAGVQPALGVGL
Adenosine A2A, sequence (P29274 whole entry): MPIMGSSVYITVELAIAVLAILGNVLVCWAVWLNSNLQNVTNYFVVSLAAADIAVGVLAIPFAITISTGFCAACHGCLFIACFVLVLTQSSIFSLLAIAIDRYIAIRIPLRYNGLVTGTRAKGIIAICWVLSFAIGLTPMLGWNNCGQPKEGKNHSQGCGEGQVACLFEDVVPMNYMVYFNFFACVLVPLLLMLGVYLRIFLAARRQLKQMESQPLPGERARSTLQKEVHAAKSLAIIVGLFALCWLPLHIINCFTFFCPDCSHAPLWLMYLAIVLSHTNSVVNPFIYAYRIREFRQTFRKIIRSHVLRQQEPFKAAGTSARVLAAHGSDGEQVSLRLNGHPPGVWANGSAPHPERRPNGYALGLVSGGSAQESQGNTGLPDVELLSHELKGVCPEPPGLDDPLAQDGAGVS

Row | Structure (SMILES) | EC50 ([1]; A2B_cAMP_EC50 (nM)) [nM] | Ki [2] [nM] | Ki [2, 3] [nM] | EC50 ([1]; read-out: A2B_cAMP_EC50) [nM] | Ki [2, 4] [nM]
1 | N#Cc1cccc(-c2nc(N)c3nc(C(O)c4c(F)cccc4CN4CCCC4)nn3c2-c2ccncn2)c1 (single isomer, unassigned) [Example 110, 3-(8-amino-2-((2-fluoro-6-(pyrrolidin-1-ylmethyl)phenyl)(hydroxy)methyl)-5-(pyrimidin-4-yl)-[1,2,4]triazolo[1,5-a]pyrazin-6-yl)benzonitrile] | 100 to 1000 | < 10 | – | – | –
2 | CN1CC[C@H](NCc2cccc(F)c2Cc2nc3c(N)nc(-c4cccc(C#N)c4F)cn3n2)C1=O [Example 84, (S)-3-(8-amino-2-(2-fluoro-6-(((1-methyl-2-oxopyrrolidin-3-yl)amino)methyl)benzyl)-[1,2,4]triazolo[1,5-a]pyrazin-6-yl)-2-fluorobenzonitrile] | < 10 | – | < 10 | – | –
3 | Cc1nc(C(O)C(F)F)c(-c2c(-c3cccc(C#N)c3F)nc(N)c3nc(Cc4ccccn4)nn23)o1 (stereo not shown) [Example 87, 3-(8-amino-5-(4-(2,2-difluoro-1-hydroxyethyl)-2-methyloxazol-5-yl)-2-(pyridin-2-ylmethyl)-[1,2,4]triazolo[1,5-a]pyrazin-6-yl)-2-fluorobenzonitrile] | 10 to 100 | – | < 10 | – | –
4 | Cc1nc(C(C)O)c(-c2c(-c3cccc(C#N)c3)nc(N)c3cc(Cc4ccccn4)nn23)o1 (stereo not shown) [Example 34, 3-(4-Amino-7-(4-(1-hydroxyethyl)-2-methyloxazol-5-yl)-2-(pyridin-2-ylmethyl)pyrazolo[1,5-a]pyrazin-6-yl)benzonitrile] | 10 to 100 | – | < 10 | – | –
5 | N#Cc1cccc(-c2nc(N)c3nc(C(O)c4cc(F)ccc4F)nn3c2-c2ccncn2)c1 (single isomer, unassigned) [Example 52, 3-(8-Amino-2-((2,5-difluorophenyl)(hydroxy)methyl)-5-(pyrimidin-4-yl)-[1,2,4]triazolo[1,5-a]pyrazin-6-yl)benzonitrile] | – | – | – | < 10 | < 10
6 | CCN(CC)C(=O)c1cc2c(N)nc(-c3cccc(C#N)c3)c(-c3ccncn3)n2n1 [Example 10, 4-Amino-6-(3-cyanophenyl)-N,N-diethyl-7-(pyrimidin-4-yl)pyrazolo[1,5-a]pyrazine-2-carboxamide] | < 10 | – | < 10 | – | –
7 | N#Cc1cccc(-c2nc(N)c3nc(C(O)c4c(F)cccc4OC(F)F)nn3c2-c2ccncn2)c1 (single isomer, unassigned) [Example 98, 3-(8-amino-2-((2-(difluoromethoxy)-6-fluorophenyl)(hydroxy)methyl)-5-(pyrimidin-4-yl)-[1,2,4]triazolo[1,5-a]pyrazin-6-yl)benzonitrile] | – | – | – | < 10 | < 10
8 | N#Cc1cccc(-c2nc(N)c3cc(Nc4ccccc4)nn3c2-c2ccncc2)c1 [Example 25, 3-(4-Amino-2-(phenylamino)-7-(pyridin-4-yl)pyrazolo[1,5-a]pyrazin-6-yl)benzonitrile] | 10 to 100 | – | < 10 | – | –
9 | C[C@@]1(C(=O)O)CCN(Cc2cccc(F)c2Cc2nc3c(N)nc(-c4cccc(C#N)c4)c(-c4ccncn4)n3n2)C1 [Example 65, (R)-1-(2-((8-amino-6-(3-cyanophenyl)-5-(pyrimidin-4-yl)-[1,2,4]triazolo[1,5-a]pyrazin-2-yl)methyl)-3-fluorobenzyl)-3-methylpyrrolidine-3-carboxylic Acid] | 10 to 100 | – | < 10 | – | –
10 | N#CCCn1cc(-c2cccc(F)c2Cc2nc3c(N)nc(-c4cccc(C#N)c4F)cn3n2)cn1 [Example 117, 3-(8-amino-2-(2-(1-(2-cyanoethyl)-1H-pyrazol-4-yl)-6-fluorobenzyl)-[1,2,4]triazolo[1,5-a]pyrazin-6-yl)-2-fluorobenzonitrile] | < 10 | – | < 10 | – | –
11 | CCn1nccc1-c1c(-c2cccc(C#N)c2)nc(N)c2nc(C(O)c3c(F)cccc3F)nn12 (single isomer, unassigned) [Example 92, 3-(8-amino-2-((2,6-difluorophenyl)(hydroxy)methyl)-5-(1-ethyl-1H-pyrazol-5-yl)-[1,2,4]triazolo[1,5-a]pyrazin-6-yl)benzonitrile] | < 10 | < 10 | – | – | –
12 | N#Cc1cccc(-c2nc(N)c3nc(C(O)c4c(F)cccc4F)nn3c2-c2ccncn2)c1 (single isomer, unassigned) [Example 49, 3-(8-Amino-2-((2,6-difluorophenyl)(hydroxy)methyl)-5-(pyrimidin-4-yl)-[1,2,4]triazolo[1,5-a]pyrazin-6-yl)benzonitrile] | < 10 | < 10 | – | – | –
13 | CCn1nncc1-c1c(-c2cccc(C#N)c2)nc(N)c2cc(Cc3ccccn3)nn12 [Example 36, 3-(4-Amino-7-(1-ethyl-1H-1,2,3-triazol-5-yl)-2-(pyridin-2-ylmethyl)pyrazolo[1,5-a]pyrazin-6-yl)benzonitrile] | < 10 | – | < 10 | – | –
14 | N#Cc1cccc(-c2nc(N)c3cc(C(=O)N4CCCC4)nn3c2-c2ccncn2)c1 [Example 8, 3-(4-Amino-7-(pyrimidin-4-yl)-2-(pyrrolidine-1-carbonyl)pyrazolo[1,5-a]pyrazin-6-yl)benzonitrile] | 10 to 100 | – | < 10 | – | –
15 | CN(C)Cc1cccc(F)c1C(O)c1nc2c(N)nc(-c3cccc(C#N)c3)c(-c3ccncn3)n2n1 (single isomer, unassigned) [Example 100, 3-(8-amino-2-((2-((dimethylamino)methyl)-6-fluorophenyl)(hydroxy)methyl)-5-(pyrimidin-4-yl)-[1,2,4]triazol[1,5-a]pyrazin-6-yl)benzonitrile] | 100 to 1000 | < 10 | – | – | –
16 | N#Cc1cccc(-c2nc(N)c3cc(C(O)c4ccccc4F)nn3c2Br)c1 (stereo not shown) [Example 22, 3-(4-Amino-7-bromo-2-((2-fluorophenyl)(hydroxy)methyl)pyrazolo[1,5-a]pyrazin-6-yl)benzonitrile] | 100 to 1000 | – | < 10 | – | –
17 | N#Cc1cccc(-c2nc(N)c3nc(C(O)c4cccc(F)c4F)nn3c2-c2ccncn2)c1 (single isomer, unassigned) [Example 54, 3-(8-Amino-2-((2,3-difluorophenyl)(hydroxy)methyl)-5-(pyrimidin-4-yl)-[1,2,4]triazolo[1,5-a]pyrazin-6-yl)benzonitrile] | – | – | – | < 10 | < 10
18 | N#Cc1cccc(-c2nc(N)c3nc(Cc4cccc5ocnc45)nn3c2-c2ccncn2)c1 [Example 63, 3-(8-amino-2-(benzo[d]oxazol-4-ylmethyl)-5-(pyrimidin-4-yl)-[1,2,4]triazolo[1,5-a]pyrazin-6-yl)benzonitrile] | < 10 | – | < 10 | – | –
19 | CCNC(=O)c1cc2c(N)nc(-c3cccc(C#N)c3)c(-c3ccncn3)n2n1 [Example 4, 4-Amino-6-(3-cyanophenyl)-N-ethyl-7-(pyrimidin-4-yl)pyrazolo[1,5-a]pyrazine-2-carboxamide] | 10 to 100 | – | < 10 | – | –
20 | Cn1cc(-c2cccnc2Cc2nc3c(N)nc(-c4cccc(C#N)c4)c(-c4ccncn4)n3n2)cn1 [Example 122, 3-(8-Amino-2-((3-(1-methyl-1H-pyrazol-4-yl)pyridin-2-yl)methyl)-5-(pyrimidin-4-yl)-[1,2,4]triazolo[1,5-a]pyrazin-6-yl)benzonitrile] | 10 to 100 | – | < 10 | – | –
21 | N#Cc1cccc(-c2nc(N)c3nc(C(O)c4c(F)cccc4F)nn3c2-c2ccncn2)c1 (single isomer, unassigned) [Example 50, 3-(8-Amino-2-((2,6-difluorophenyl)(hydroxy)methyl)-5-(pyrimidin-4-yl)-[1,2,4]triazolo[1,5-a]pyrazin-6-yl)benzonitrile] | – | – | – | < 10 | < 10
22 | N#Cc1cccc(-c2nc(N)c3nc(Cc4c(F)cccc4CN4CC[C@H](C(=O)O)C4)nn3c2-c2ccncn2)c1 [Example 30, (S)-1-(2-((8-Amino-6-(3-cyanophenyl)-5-(pyrimidin-4-yl)-[1,2,4]triazolo[1,5-a]pyrazin-2-yl)methyl)-3-fluorobenzyl)pyrrolidine-3-carboxylic Acid] | 10 to 100 | – | < 10 | – | –
23 | Cn1nc(-c2c(-c3cccc(C#N)c3)nc(N)c3nc(C(N)c4c(F)cccc4F)nn23)ccc1=O (stereo not shown) [Example 81, 3-(8-amino-2-(amino(2,6-difluorophenyl)methyl)-5-(1-methyl-6-oxo-1,6-dihydropyridazin-3-yl)-[1,2,4]triazolo[1,5-a]pyrazin-6-yl)benzonitrile] | < 10 | – | < 10 | – | –
24 | CCOC(=O)Nc1nc2c(N)nc(-c3cccc(C#N)c3)cn2n1 [Example 14, Ethyl(8-amino-6-(3-cyanophenyl)-[1,2,4]triazolo[1,5-a]pyrazin-2-yl)carbamate] | > 1000 | 10 to 100 | – | – | –
25 | Cc1ncoc1-c1c(-c2cccc(C#N)c2)nc(N)c2nc(C(N)c3ccccc3F)nn12 (stereo not shown) [Example 80, 3-(8-amino-2-(amino(2-fluorophenyl)methyl)-5-(4-methyloxazol-5-yl)-[1,2,4]triazolo[1,5-a]pyrazin-6-yl)benzonitrile] | < 10 | – | < 10 | – | –
26 | N#Cc1cccc(-c2nc(N)c3nc(Cc4c(F)cccc4CN4CC(C(=O)O)C4)nn3c2-c2ccncn2)c1 [Example 31, 1-(2-((8-Amino-6-(3-cyanophenyl)-5-(pyrimidin-4-yl)-[1,2,4]triazolo[1,5-a]pyrazin-2-yl)methyl)-3-fluorobenzyl)azetidine-3-carboxylic Acid] | 10 to 100 | – | < 10 | – | –
